Results: patent US20230015532A1, “PHARMACEUTICAL COMPOSITION, FOR PREVENTING OR TREATING FIBROSIS, COMPRISING PHEOPHORBIDE COMPOUND AS ACTIVE INGREDIENT” (PAEAN BIOTECHNOLOGY INC., priority 2019, published 2023)

Tests used:
Assay type in all cases: cell-based, human
[1] = test system: collagen 1A, fibronectin and alpha-smooth muscle actin proteins in CCD8-Lu cells; test: Anti-fibrotic activity by Western blotting (Experimental Example 3.1); conditions: 0.06-5 μM, 6 hours after TGF-β, 18 hours
Experimental: A cell-based assay experiment was performed using Western blotting assay to analyze the anti-fibrotic activity of pheophorbide a.
CCD8-Lu cells, which are human lung-derived fibroblasts, were cultured in the DMEM medium containing 10% FBS. Then, about 2×10^5 cells were inoculated into a 6 well plate and cultured for 24 hours, and subjected to the deficient condition in the DMEM medium from which FBS was removed for about 24 hours.
24 hours later, following the treatment with TGF-β at a concentration of 5 ng/ml, fibrosis of cells was induced for 6 hours. After 6 hours, the cells were treated with pheophorbide a obtained in Preparation Example 2 and further cultured for 18 hours (FIG. 2). Then, the negative control group was treated with nothing, the positive control group was treated with TGF-β alone at a concentration of 5 ng/ml, and the experimental groups were treated with TGF-β at a concentration of […] and 6 hours later, with pheophorbide a at each concentration of 0.06 μM, 0.12 μM, 0.25 μM, 0.5 μM, 2.5 μM and 5 μM. […]
The separated supernatant was obtained and transferred to a new microtube and then the protein was quantified using a bicinchoninic acid assay (BCA assay) protein quantitative kit. […]

[2] = test system: collagen 1A in CCD8-Lu cells; test: Anti-fibrotic activity by immunocytochemistry staining (Experimental Example 3.2); conditions: 6 hours after 5 ng/ml TGF-β
Experimental: A cell-based assay experiment was performed to analyze the anti-fibrotic activity of pheophorbide a obtained in Preparation Example 2, using immunocytochemistry staining method.
CCD8-Lu cells, which are human lung-derived fibroblasts, were cultured in the DMEM medium containing 10% FBS. About 2×10^4 cells were then inoculated into a 24 well plate and cultured for 24 hours, and subjected to the deficient condition in the DMEM medium from which FBS was removed for about 24 hours.
After 24 hours, following the treatment with TGF-β at a concentration of 5 ng/ml, fibrosis of cells was induced for 6 hours. After 6 hours, the cells were treated with pheophorbide a obtained in Preparation Example 2 and further cultured for 18 hours (FIG. 2). Then, the negative control group was treated with nothing, the positive control group was treated with TGF-β alone at a concentration of 5 ng/ml, and the experimental groups were treated with TGF-β at a concentration of 5 ng/ml and 6 hours later, with pheophorbide a at each concentration of 0.15 μM, 0.3 μM, 0.6 μM, 1.2 μM, 2.5 μM and 5 μM.
Immunohistochemistry analysis for each sample was performed as follows. […] The nuclei were stained using DAPI (4,6-diamidino-2-phenylindole) and the difference in the intensity of fluorescence was analyzed using a fluorescence microscope.

[3] = test system: α-SMA, CTGF and NOX4 genes in CCD8-Lu cells; test: Comparison of anti-fibrotic activity by quantitative real-time PCR (Experimental Example 4.1); conditions: 2.5 μM and 5 μM; 6 hours after 5 ng/ml TGF-β, 18 hours; qRT-PCR
Experimental: A cell-based analysis experiment was performed to analyze the anti-fibrotic activity of pheophorbide a obtained in Preparation Example 2 in comparison with nintedanib and pirfenidone, which were previously approved as a therapeutic agent for pulmonary fibrosis, using quantitative real-time polymerase chain reaction.
CCD8-Lu cells, which are human lung-derived fibroblasts, were cultured in the DMEM medium containing 10% FBS. About 2×10^5 cells were then inoculated into a 6 well plate, cultured for 24 hours, and subjected to the deficient condition in the DMEM medium from which FBS was removed for about 24 hours.
24 hours later, following the treatment with TGF-β at a concentration of 5 ng/ml, fibrosis of cells was induced for 6 hours. After 6 hours, the cells were treated with pheophorbide a obtained in Preparation Example 2 or the therapeutic agent for pulmonary fibrosis and further cultured for 18 hours. […]
The supernatant was separated, added with the same volume of isopropyl alcohol and centrifuged at 12,000×g for 10 minutes. […] After drying, about 50 μl of RNAase-free purified distilled water was added thereto, and the quantity and purity of the obtained RNA was measured using a spectrophotometer. […]
After the cDNA synthesis reaction was completed, the reverse transcriptase was inactivated by heating at 72° C. for 5 minutes, and then RNase H was added to remove the […] RNA and obtain the final cDNA. Whether the expression of the alpha-smooth muscle actin gene, which is a characteristic gene of myofibroblasts, the CCN2 (or CTGF) gene, which is a characteristic gene for fibrosis, fibronectin, which is a characteristics gene for fibrosis, and the NOX4 (NADPH oxidase 4) gene known as a major regulator of the amount of reactive oxygen species was changed was observed through quantitative real-time polymerase chain reaction. The GAPDH gene was quantified together to correct differences in expression.

pheophorbide a
expression of collagen 1A, fibronectin, and smooth muscle actin proteins induced by TGF-β [1]: inhibited
increased expression of collagen 1A induced by TGF-β ([2]; 0.15-5 μM, fluorescence intensity): largely inhibited
inhibitory effect on the increased expression of collagen 1A induced by TGF-β ([2]; concentration of 2.5 μM or more): most excellent inhibitory effect
expression of the α-SMA, CTGF and NOX4 genes induced by TGF-β [3]: remarkably inhibited
